The structures appear in SMILES notation. Where a name gives a salt, the structure may show the parent alone. Some results are limits rather than exact numbers.

In patent US20240158393A1, “PYRIDONE COMPOUNDS AND METHODS OF USE” (Exelixis, Inc., priority 2021, published 2024) one finds IC50 data, which are given here for twelve compounds.

For experiment [1], the target named is T1, Human Met (Homo sapiens, UniProt P08581).
T1 construct: Human MET (residues 956-1390)
The experiment can be described thus: Human Met kinase assay (33P radiometric / HTRF KinEase). Type of experiment: biochemical. To be noted: protocols of Examples D-1 and/or D-2; read-out: c-Met IC50. An outline of the steps:
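Two formats gave IC50s by curve fitting. HTRF KinEase used MET residues 956-1390 with 1 μM biotin-peptide and 3.0 μM ATP (Km) for 40 min at room temperature, ten doses in 3% DMSO, 665/620 nm read. The 33P transfer assay used mutant Met R974-S1390 A1209G/V1290L (3.4 nM), 10 μM ATP, 250 μM peptide, pH 7.0, 40 min, nine doses from 1 μM.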

The target in experiment [2] is T2, Human Mer (Homo sapiens, UniProt Q12866).
T2 construct: Human Mer (residues R557-E882 with H628Q and R794A, 0.7 nM); purchased Eurofins Pharma Discovery Services UK Limited (KinaseProfiler service)
T2 sequence (Q12866 557-882 limits assumed): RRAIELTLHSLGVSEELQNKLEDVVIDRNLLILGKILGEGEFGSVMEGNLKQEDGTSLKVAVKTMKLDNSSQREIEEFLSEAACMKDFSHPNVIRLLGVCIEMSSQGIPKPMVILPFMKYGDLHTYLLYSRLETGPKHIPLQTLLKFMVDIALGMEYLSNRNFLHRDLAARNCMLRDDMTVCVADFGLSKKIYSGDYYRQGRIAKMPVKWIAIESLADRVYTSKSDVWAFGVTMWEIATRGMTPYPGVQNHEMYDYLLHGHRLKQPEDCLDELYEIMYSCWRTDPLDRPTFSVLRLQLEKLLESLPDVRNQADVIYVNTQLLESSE
Description: Human Mer kinase assay (33P radiometric / HTRF KinEase). The experiment is classed as biochemical. To be noted: protocols of Examples C-1 and/or C-2. The essentials: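 Two formats yield IC50 values. HTRF KinEase used MER residues 528-999 with ATP at Km (40 μM), 1 μM biotin-peptide, 60 min RT, […], 10 concentrations. 33P filter assay used 0.7 nM Mer R557-E882 (H628Q/R794A), 10 μM ATP, 250 μM peptide, 40 min RT, top 1 μM.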
For orientation: In TR-FRET formats the signal depends on donor and acceptor labels being close together.

T1 sequence (P08581 974-1390 limits assumed): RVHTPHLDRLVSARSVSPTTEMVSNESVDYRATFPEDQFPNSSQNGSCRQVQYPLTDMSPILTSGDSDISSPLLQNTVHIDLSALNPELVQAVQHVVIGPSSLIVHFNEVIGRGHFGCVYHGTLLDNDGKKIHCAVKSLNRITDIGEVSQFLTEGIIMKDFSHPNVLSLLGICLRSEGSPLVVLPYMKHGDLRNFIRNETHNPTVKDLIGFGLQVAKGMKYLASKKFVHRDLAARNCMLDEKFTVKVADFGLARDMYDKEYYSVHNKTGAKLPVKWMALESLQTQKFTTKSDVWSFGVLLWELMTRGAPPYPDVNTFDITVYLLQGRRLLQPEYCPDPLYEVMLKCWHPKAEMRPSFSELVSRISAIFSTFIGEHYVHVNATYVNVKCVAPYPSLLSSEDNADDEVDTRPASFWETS

As to `COCCOc1cc2nccc(Oc3ccc(NC(=O)c4c(C)n(C)c(C)c(/C=C/C5CCCC5)c4=O)cc3F)c2nc1OC` [Compound 54, 5-[(E)-2-Cyclopentylethenyl]-N-[3-fluoro-4-[[6-methoxy-7-(2-methoxyethoxy)-1,5-naphthyridin-4-yl]oxy]phenyl]-1,2,6-trimethyl-4-oxopyridine-3-carboxamide], the IC50 in experiment [1] was 100 to 300 nM; in experiment [2], not above 100 nM.

As for `COc1cc2nccc(Oc3ccc(NC(=O)c4c(C)n(C)c(C)c(C5=CCOCC5)c4=O)cc3F)c2nc1OC` [Compound 53, 5-(3,6-Dihydro-2H-pyran-4-yl)-N-[4-[(6,7-dimethoxy-1,5-naphthyridin-4-yl)oxy]-3-fluorophenyl]-1,2,6-trimethyl-4-oxopyridine-3-carboxamide], the IC50 in experiment [1] and in experiment [2] was not above 100 nM in each case.

With `COc1nc2c(Oc3ccc(NC(=O)c4c(C)n(C)c(C)c(C5=CCCC5)c4=O)cc3F)ccnc2cc1OCCC1CCC1` [Compound 74, N-[4-[[7-(2-Cyclobutylethoxy)-6-methoxy-1,5-naphthyridin-4-yl]oxy]-3-fluorophenyl]-5-(cyclopenten-1-yl)-1,2,6-trimethyl-4-oxopyridine-3-carboxamide], the IC50 in experiment [1] and in experiment [2] was not above 100 nM throughout.

Regarding `COCCOc1cnc2c(Oc3ccc(NC(=O)c4c(C)n(C)c(C)c(C5=CCCCC5)c4=O)cc3F)ccnc2c1` [Compound 66, 5-(Cyclohexen-1-yl)-N-[3-fluoro-4-[[7-(2-methoxyethoxy)-1,5-naphthyridin-4-yl]oxy]phenyl]-1,2,6-trimethyl-4-oxopyridine-3-carboxamide], the concentration for half-maximal inhibition (IC50) in experiment [1] and in experiment [2] was not above 100 nM in each case.

Take `C=C(C)c1c(C)n(C)c(C)c(C(=O)Nc2ccc(Oc3ccnc4cc(OC)c(OC)nc34)cc2)c1=O` [Compound 55, N-[4-[(6,7-Dimethoxy-1,5-naphthyridin-4-yl)oxy]phenyl]-1,2,6-trimethyl-4-oxo-5-prop-1-en-2-ylpyridine-3-carboxamide]: the IC50 was more than 300 nM in experiment [1] and not above 100 nM in experiment [2].

As to `COc1cc2nccc(Oc3ccc(NC(=O)c4cnc(C)c(C5=CCCC5)c4O)cc3F)c2nc1OC` [Compound G1-2, 5-(Cyclopenten-1-yl)-N-[4-[(6,7-dimethoxy-1,5-naphthyridin-4-yl)oxy]-3-fluorophenyl]-4-hydroxy-6-methylpyridine-3-carboxamide hydrochloride], the IC50 in experiment [1] and in experiment [2] was not above 100 nM in each case.

As for `COc1cc2nccc(Oc3ccc(NC(=O)c4c5n(cc(C6=CCCCC6)c4=O)CCOC5)cc3F)c2nc1OC` [Compound G1-4, 7-(Cyclohexen-1-yl)-N-[4-[(6,7-dimethoxy-1,5-naphthyridin-4-yl)oxy]-3-fluorophenyl]-8-oxo-3,4-dihydro-1H-pyrido[2,1-c][1,4]oxazine-9-carboxamide], the IC50 in experiment [1] and in experiment [2] was not above 100 nM in each case.

`COCCOc1cnc2c(Oc3ccc(NC(=O)c4c(C)n(C)c(C)c(C5=CCCC5)c4=O)cc3F)ccnc2c1` [Compound 65, 5-(Cyclopenten-1-yl)-N-[3-fluoro-4-[[7-(2-methoxyethoxy)-1,5-naphthyridin-4-yl]oxy]phenyl]-1,2,6-trimethyl-4-oxopyridine-3-carboxamide]: the IC50 in experiment [1] and in experiment [2] was not above 100 nM throughout.

As to `COCCOc1cc2nccc(Oc3ccc(NC(=O)c4c(C)n(C)c(C)c(C5=CCCCC5)c4=O)cc3F)c2nc1OC` [Compound 58, 5-(Cyclohexen-1-yl)-N-[3-fluoro-4-[[6-methoxy-7-(2-methoxyethoxy)-1,5-naphthyridin-4-yl]oxy]phenyl]-1,2,6-trimethyl-4-oxopyridine-3-carboxamide], the IC50 in experiment [1] and in experiment [2] was not above 100 nM throughout.

As for `COc1cc2nccc(Oc3ccc(NC(=O)c4cnc(C)c(C5=CCCCC5)c4O)cc3F)c2nc1OC` [Compound G1-3, 5-(Cyclohexen-1-yl)-N-[4-[(6,7-dimethoxy-1,5-naphthyridin-4-yl)oxy]-3-fluorophenyl]-4-hydroxy-6-methylpyridine-3-carboxamide], the IC50 in experiment [1] and in experiment [2] was not above 100 nM throughout.

`C=C(C)c1c(C)n(C)c(C)c(C(=O)Nc2ccc(Oc3ccnc4cc(OC)c(OC)nc34)c(F)c2)c1=O` [Compound 52, N-[4-[(6,7-Dimethoxy-1,5-naphthyridin-4-yl)oxy]-3-fluorophenyl]-1,2,6-trimethyl-4-oxo-5-prop-1-en-2-ylpyridine-3-carboxamide]: the concentration for half-maximal inhibition (IC50) in experiment [1] was more than 300 nM; in experiment [2] it was not above 100 nM.

As to `COc1cc2nccc(Oc3ccc(NC(=O)c4c5n(c(C)c(C6=CCOCC6)c4=O)CCOC5)cc3)c2nc1OC` [Compound 73, 7-(3,6-Dihydro-2H-pyran-4-yl)-N-[4-[(6,7-dimethoxy-1,5-naphthyridin-4-yl)oxy]phenyl]-6-methyl-8-oxo-3,4-dihydro-1H-pyrido[2,1-c][1,4]oxazine-9-carboxamide], the IC50 in experiment [1] and in experiment [2] was not above 100 nM in each case.

The IC50 is the concentration that gives 50% inhibition.
